Experimental findings from patent US20130261130A1, “NEUROTRYPSIN INHIBITORS” (priority 2010, published 2013) are described below.

The assay has as its target T1, human neurotrypsin (Homo sapiens, UniProt P56730).
T1 sequence (P56730 21-875): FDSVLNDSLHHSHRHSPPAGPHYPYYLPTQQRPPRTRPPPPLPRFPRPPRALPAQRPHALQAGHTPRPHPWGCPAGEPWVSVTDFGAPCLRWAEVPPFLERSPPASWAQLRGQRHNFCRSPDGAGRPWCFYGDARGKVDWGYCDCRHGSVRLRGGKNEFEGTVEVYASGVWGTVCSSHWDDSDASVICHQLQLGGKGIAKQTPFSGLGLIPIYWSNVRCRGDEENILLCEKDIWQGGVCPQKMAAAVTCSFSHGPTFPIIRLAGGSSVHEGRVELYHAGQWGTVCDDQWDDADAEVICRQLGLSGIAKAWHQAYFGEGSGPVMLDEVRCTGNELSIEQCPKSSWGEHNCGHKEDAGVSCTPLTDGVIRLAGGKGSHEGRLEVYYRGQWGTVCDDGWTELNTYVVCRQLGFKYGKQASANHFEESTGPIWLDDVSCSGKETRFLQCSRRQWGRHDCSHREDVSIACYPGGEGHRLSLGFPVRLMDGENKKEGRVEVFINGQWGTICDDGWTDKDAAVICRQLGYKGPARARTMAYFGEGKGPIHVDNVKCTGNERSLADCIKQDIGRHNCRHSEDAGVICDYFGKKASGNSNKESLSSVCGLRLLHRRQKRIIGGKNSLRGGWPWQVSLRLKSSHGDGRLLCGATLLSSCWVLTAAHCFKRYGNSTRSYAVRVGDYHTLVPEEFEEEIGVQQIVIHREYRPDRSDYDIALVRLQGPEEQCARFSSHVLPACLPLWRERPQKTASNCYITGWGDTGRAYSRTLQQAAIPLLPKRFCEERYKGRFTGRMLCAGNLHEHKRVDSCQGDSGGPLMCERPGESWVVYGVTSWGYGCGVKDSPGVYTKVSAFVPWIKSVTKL
The assay can be described thus: Determination of IC50 for human neurotrypsin. It counts as biochemical. The following applies: human neurotrypsin; method of WO 2006/1103261; read-out: Neurotrypsin IC50. Here is the method: Assessment of the potency of compounds of examples 1-311 in inhibiting the enzymatic activity of human neurotrypsin was performed according to the method described in patent application WO 2006/1103261
Consider `O=C(O)c1ccc(C#Cc2ccc(Cl)cc2)cc1NC(=O)c1sc2ccccc2c1Cl` [Example 248], for which the IC50 was more than 150 µM.

As for `O=C(O)c1ccc(NS(=O)(=O)c2ccc(Cl)cc2)cc1NC(=O)c1sc2ccccc2c1Cl` [Example 278], the IC50 came to 19.4 µM.

For `CCCCCCCNC(=O)c1ccc(NC(=O)c2ccc(-c3nc4cc(Cl)c(Cl)cc4[nH]3)cc2)c(C(=O)O)c1` [Example 137], the IC50 stood at 2.4 µM.

For the compound `O=C(O)c1ccc(C(=O)Nc2ccc(Cl)cc2)c(NC(=O)c2sc3ccccc3c2Cl)c1` [Example 188, 3-(3-Chlorobenzo[b]-thiophene-2-carboxamido)-4-(4-chlorophenylcarbamoyl)-benzoic acid], the IC50 was determined as 6.8 µM.

Regarding `O=C(Nc1ccc(C(=O)N2CCC(c3ccc(F)cc3)CC2)cc1C(=O)O)c1ccc(-c2nc3cc(Cl)c(Cl)cc3[nH]2)cc1` [Example 38, 2-(4-(5,6-Dichloro-1H-benzo[d]imidazol-2-yl)-benzamido)-5-(4-(4-fluorophenyl)piperidine-1-carbonyl)benzoic acid], the IC50 was determined as 4.8 µM.

Regarding `O=C(O)c1ccc(NC(=O)c2ccc(Cl)s2)c(C(=O)Nc2ccc(Cl)cc2)c1` [Example 218, 3-(4-Chlorophenyl-carbamoyl)-4-(5-chloro-thiophene-2-carboxamido)-benzoic acid], the concentration for half-maximal inhibition (IC50) stood at 40.8 µM.

For `O=C(O)c1cc(C(=O)N2CCC(c3ccc(Cl)cc3)CC2)ccc1NC(=O)c1sc2ccccc2c1Cl` [Example 115], the IC50 turned out to be 3.1 µM.

Regarding `O=C(Nc1ccccc1F)c1ccc(NC(=O)c2[nH]c3ccc(Cl)cc3c2-c2ccccc2)c(C(=O)O)c1` [Example 139], the IC50 came to 7.5 µM.

`COC(=O)c1cc(OCC(=O)O)c(C(=O)Nc2ccc(Cl)cc2)cc1NC(=O)c1ccc(-c2nc3cc(Cl)c(Cl)cc3n2C)cc1` [Example 305]: the IC50 was found to be 1.2 µM.

As to `CN(CC1CCCCC1)C(=O)c1ccc(NC(=O)c2ccc(-c3nc4cc(Cl)c(Cl)cc4[nH]3)cc2)c(C(=O)O)c1` [Example 49, 5-(N-Cyclohexylmethyl-N-methylcarbamoyl)-2-(4-(5,6-dichloro-1H-benzo[d]-imidazol-2-yl)benzamido)-benzoic acid], the IC50 came to 6.6 µM.

In the case of “3-Chloro-N-(5-(5-chloro-1,3-thiazol-2-ylcarbamoyl)-2-(2H-tetrazol-5-yl)phenyl)benzo[b]-thiophene-2-carboxamide [Example 227]”, the IC50 is 9.7 µM.

As to `COc1ccc(CC2CCN(C(=O)c3ccc(NC(=O)c4sc5ccccc5c4Cl)c(C(=O)O)c3)CC2)cc1` [Example 117], the IC50 worked out at 2.9 µM.

In the case of `O=C(Nc1ccc(Cl)cc1)c1ccc(NC(=O)c2ccc(-c3nc4cc(Cl)ccc4[nH]3)cc2)c(C(=O)O)c1` [Example 37, 2-(4-(5-Chloro-1H-benzo[d]-imidazol-2-yl)benzamido)-5-(4-chlorophenylcarbamoyl)-benzoic acid], the IC50 is 1.6 µM.

As for `O=C(O)COc1cc(C(=O)O)c(NC(=O)c2ccc(-c3nc4cc(Cl)c(Cl)cc4n3CC(=O)O)cc2)cc1C(=O)Nc1ccc(Cl)cc1` [Example 302, 5-(Carboxymethoxy)-2-(4-(1-(carboxymethyl)-5,6-dichloro-1H-benzo[d]imidazol-2-yl)benzamido)-4-(4-chlorophenylcarbamoyl)benzoic acid], the IC50 was determined as 4.4 µM.

With `O=C(Nc1ccc(C(=O)N2CCC(Cc3ccc(F)cc3)CC2)cc1C(=O)O)c1ccc(-c2nc3cc(Cl)c(Cl)cc3[nH]2)cc1` [Example 141, 2-(4-(5,6-Dichloro-1H-benzo[d]imidazol-2-yl)benzamido)-5-(4-(4-fluorobenzyl)piperidine-1-carbonyl)benzoic acid], the IC50 is 1.9 µM.

For the compound `O=C(Nc1ccc(Cl)cc1F)c1ccc(C(=O)O)c(NC(=O)c2sc3ccccc3c2Cl)c1` [Example 5, 2-(3-Chlorobenzo[b]-thiophene-2-carboxamido)-4-(4-chloro-2-fluoro-phenyl-carbamoyl)benzoic acid], the IC50 was 1.9 µM.

As for `O=C(Nc1ccc(Oc2cccnc2)c(Cl)c1)c1ccc(C(=O)O)c(NC(=O)c2sc3ccccc3c2Cl)c1` [Example 85], the IC50 amounted to 2.3 µM.

With `O=C(Nc1ccccn1)c1ccc(C(=O)O)c(NC(=O)c2sc3ccccc3c2Cl)c1` [Example 149, 2-(3-Chloro-benzo[b]-thiophene-2-carboxamido)-4-(pyridin-2-ylcarbamoyl)-benzoic acid], the IC50 stood at 16.5 µM.

As for “4-(4-tert-Butoxyphenyl-carbamoyl)-3-(3-chloro-thiophene-2-carboxamido)-benzoic acid [Example 194]”, the IC50 stood at 5.9 µM.

In the case of `O=C(Nc1cc(N2CC(c3ccc(Cl)cc3)CC2=O)ccc1C(=O)O)c1ccc(-c2ccc(Cl)cc2)s1` (centres unmarked) [Example 283], the IC50 came to 3.4 µM.

For the compound `O=C(O)c1ccc(C(=O)N2CCC(Cc3ccccc3)CC2)cc1NC(=O)c1sc2ccccc2c1Cl` [Example 24, 4-(4-Benzylpiperidine-1-carbonyl)-2-(3-chloro-benzo[b]thiophene-2-carboxamido)benzoic acid], the IC50 worked out at 4 µM.

Take `O=C(NCc1ccc(Cl)cc1)c1ccc(C(=O)O)c(NC(=O)c2sc3ccccc3c2Cl)c1` [Example 148, 2-(3-Chloro-benzo[b]-thiophene-2-carboxamido)-4-(4-chlorobenzylcarbamoyl)-benzoic acid]: the IC50 was determined as 4.3 µM.

In the case of `CN(C(=O)c1ccc(C(=O)O)c(NC(=O)c2sc3ccccc3c2Cl)c1)c1cc2ccccc2s1` [Example 88], the IC50 is 24.8 µM.

With `O=C(O)c1cc(-c2cn(-c3ccc(Cl)cc3)nn2)ccc1NC(=O)c1sc2ccccc2c1Cl` [Example 263], the IC50 was found to be 4 µM.

For `O=C(O)c1cc(C(=O)N2CCC(c3ccc(O)cc3)CC2)ccc1NC(=O)c1sc2ccccc2c1Cl` [Example 122], the IC50 was 9.4 µM.

Regarding `O=C(Nc1ncc(Cl)s1)c1ccc(C(=O)O)c(NC(=O)c2sc3ccccc3c2Cl)c1` [Example 59], the IC50 came out at 9 µM.

`O=C(Nc1ccc(Oc2ccccc2)cc1)c1ccc(C(=O)O)c(NC(=O)c2sc3ccccc3c2Cl)c1` [Example 64]: the IC50 was found to be 23.3 µM.

Consider `O=C(COc1ccc(NC(=O)c2ccc(-c3nc4cc(Cl)c(Cl)cc4[nH]3)cc2)c(C(=O)O)c1)Nc1ccc(Cl)cc1` [Example 311, 5-(4-Chlorophenylcarbamoylmethoxy)-2-(4-(5,6-dichloro-1H-benzo[d]imidazol-2-yl)benzamido)benzoic acid], for which the half-inhibitory concentration (IC50) came out at 0.5 µM.

As for `O=C(Nc1cccc(Oc2ccccc2)c1)c1ccc(C(=O)O)c(NC(=O)c2sc3ccccc3c2Cl)c1` [Example 65], the IC50 came to 7.3 µM.

For the compound `O=C(Nc1ccc(C(=O)O)c(NC(=O)c2sc3ccccc3c2Cl)c1)c1ccc(Cl)cc1` [Example 273], the IC50 is 7.6 µM.

For the compound `O=C(Nc1ccc(Cl)cc1F)c1ccc(NC(=O)c2[nH]c3ccc(Cl)cc3c2-c2ccccc2)c(C(=O)O)c1` [Example 140], the IC50 came to 0.9 µM.

For the compound `O=C(O)c1ccc(Nc2ccc(Cl)cc2)cc1NC(=O)c1sc2ccccc2c1Cl` [Example 288, 2-(3-Chlorobenzo[b]thiophene-2-carboxamido)-4-(4-chlorophenyl-amino)benzoic acid], the IC50 was 5.1 µM.

Regarding `O=C(NCc1ccccc1)c1ccc(NC(=O)c2ccc(-c3nc4cc(Cl)c(Cl)cc4[nH]3)cc2)c(C(=O)O)c1` [Example 132], the IC50 was 5.3 µM.

With `COc1ccc(-c2ccc(C(=O)O)c(NC(=O)c3ccc(-c4nc5cc(Cl)c(Cl)cc5[nH]4)cc3)c2)cc1` [Example 266], the IC50 came to 3.7 µM.

For the compound `O=C(Nc1ccc(C(=O)N2CCC(Oc3ccccc3)CC2)cc1C(=O)O)c1ccc(-c2ccc(Cl)cc2)s1` [Example 162, 2-(5-(4-Chlorophenyl)-thiophene-2-carboxamido)-5-(4-phenoxypiperidine-1-carbonyl)benzoic acid], the IC50 was found to be 4.5 µM.

On to `O=C(O)c1ccc(C(=O)N2CCC(Oc3ccccc3)C2)cc1NC(=O)c1sc2ccccc2c1Cl` (centres unmarked) [Example 101], for which the IC50 was 9 µM.

With `O=C(Nc1ccc(C(=O)N2CCCCC2)cc1C(=O)O)c1ccc(-c2nc3cc(Cl)c(Cl)cc3[nH]2)cc1` [Example 124], the IC50 was found to be 3.9 µM.

For `O=C(Nc1ccc(Cc2ccccc2)cc1)c1ccc(C(=O)O)c(NC(=O)c2sc3ccccc3c2Cl)c1` [Example 67], the IC50 is 10.7 µM.

Consider `O=C(Nc1ccc(Cl)cc1)c1ccc(NC(=O)c2[nH]c3ccc(Cl)cc3c2-c2ccccc2)c(C(=O)O)c1` [Example 134], for which the IC50 came out at 1.9 µM.

As to `O=C(Nc1ccc(Cl)cn1)c1ccc(C(=O)O)c(NC(=O)c2sc3ccccc3c2Cl)c1` [Example 16, 2-(3-Chlorobenzo[b]-thiophene-2-carboxamido)-4-(5-chloropyridin-2-yl-carbamoyl)benzoic acid], the IC50 was determined as 8 µM.

In the case of `O=C(NCCc1ccccc1)c1ccc(NC(=O)c2ccc(-c3nc4cc(Cl)c(Cl)cc4[nH]3)cc2)c(C(=O)O)c1` [Example 123], the IC50 was determined as 3.5 µM.
